Test results: patent US20110061129A1 (priority 2008, published 2011)

Columns and labels:
[1] = tested on: mitochondrial translation in BY4743 and YKO strains; assay type: cell-based, Saccharomyces cerevisiae
[2] = tested on: Saccharomyces cerevisiae homozygous diploid YKO strains and parental strain BY4743; assay type: cell-based
[3] = tested on: Saccharomyces cerevisiae homozygous diploid YKO strains and parental strain BY4743; assay type: cell-based; remark: listed apart in the source
[4] = tested on: total translation in BY4743 and YKO strains; assay type: cell-based, Saccharomyces cerevisiae

For C/C=C\C(=O)O[C@@H]1C[C@H]2O[C@@H]3C=C(C)C(=O)C[C@]3(C)[C@]1(C)[C@]21CO1 [T-cin, trichothecin], the “effect on mitochondrial translation” value [1] was “able to inhibit mitochondrial translation”, the “effect of the 2 μM screening concentration on growth (parental strain)” value [2] was “non-lethal” and the “effect of the screening level of toxin on the parental strain” value [3] was “lethal”. For the same compound, the “inhibition of the cytosolic translation rate of BY4743” value [4] was 80-90%.
